Assay: passive permeability, PAMPA, ADME assay (AID 1508612)
Details: pH 7.4, 30.0 min, 50.0 µM

| Structure (SMILES) | Papp |
| --- | --- |
| CC1CCC(NC(=O)c2ccc3c(c2)N(Cc2ccccc2F)C(=O)c2ccccc2S3)CC1 (stereo not drawn) | 2.7 ×10⁻⁶ cm/s |
| O=C(Cc1cccc(OC(F)(F)F)c1)Nc1ccc(CCCCc2nnc(NC(=O)Cc3ccccn3)s2)nn1 | 161 ×10⁻⁶ cm/s |
| CC(C)(C)c1ccc(C(=O)N2CC(=O)Nc3ccc(F)cc3C2c2ccc(F)cc2)cc1 (stereo not drawn) | > 1000 ×10⁻⁶ cm/s |
| Cc1cnc(-c2ccccc2C(C)C)nc1NCC1CN(c2cccnc2)C1 | > 1000 ×10⁻⁶ cm/s |
| COc1ccc(-n2nc(C3CCCN(C(=O)c4ccc(C)cc4)C3)[nH]c2=O)cc1 (stereo not drawn) | 685 ×10⁻⁶ cm/s |
| O=S(=O)(c1ccc2ccccc2c1)N1CCN(c2nc(-c3cccs3)nc3ccccc23)CC1 | 3.2 ×10⁻⁶ cm/s |
| CNc1nc(-c2ccc3c(N)n[nH]c3c2)cc(N2C[C@@H](C(=O)NC3CCCCC3)CC[C@@H]2C)n1 | 14.4 ×10⁻⁶ cm/s |
| COc1cc(-c2cn(C)c(=O)c3cnccc23)c(OC)cc1CN(C)C | 28.9 ×10⁻⁶ cm/s |
| O=C1CCCC2=C1C1(CCCC1)N=C(Nc1nc3ccccc3o1)N2 | 294 ×10⁻⁶ cm/s |
| O=C(Nc1ccccc1)C1CCN(c2ncc(-c3ccc4c(c3)OCCCO4)s2)CC1 | 917 ×10⁻⁶ cm/s |
| O=c1cc(-c2ccc(O)c(O)c2)oc2cc(O)cc(O)c12 | 120 ×10⁻⁶ cm/s |
| C[C@@H](c1ccc2nccn2c1)n1nnc2ncc(-c3cnn(C)c3)nc21 | 40.7 ×10⁻⁶ cm/s |
| CC(C)c1ccc(CC(=O)N2CCCc3ncc(C(=O)Nc4cccnc4)cc32)cc1 | 734 ×10⁻⁶ cm/s |
| Cc1ccc(S(=O)(=O)n2cc(C(=O)Nc3nc(-c4ccccc4)cs3)c3ccccc32)cc1 | 3.4 ×10⁻⁶ cm/s |
| NC1CCN(c2nc(-c3ccc(Br)cc3)cs2)CC1 | > 1000 ×10⁻⁶ cm/s |
| O=[S+]([O-])(Nc1nccs1)c1ccc(NCc2cccc3c2NCC3)cc1 | 18.9 ×10⁻⁶ cm/s |
| O=C(c1ccc(-c2ncc3cnc(-c4ccccc4)cn23)cc1)N1CCS(=O)(=O)CC1 | 45.6 ×10⁻⁶ cm/s |
| Cc1ccc(C(=O)Nc2nc3nc(C)cc(=O)n3[nH]2)cc1 | < 1 ×10⁻⁶ cm/s |
| Fc1ccc(Oc2nc(-c3ccncc3)nc3ccccc23)cc1F | 16.5 ×10⁻⁶ cm/s |
| CCN(CCCO)CCCOc1ccc2c(Nc3cc(CC(=O)Nc4cccc(F)c4)[nH]n3)ncnc2c1 | 2.5 ×10⁻⁶ cm/s |
| CN(C)c1cccc(-c2cc(N3CCC(C(N)=O)CC3)ncn2)c1 | 37.8 ×10⁻⁶ cm/s |
| O=C(O)c1c(Sc2ccccc2)c2cc(Cl)ccc2n1Cc1ccc(Cl)cc1 | 709 ×10⁻⁶ cm/s |
| Cc1ccc(C)c(NC2=C(c3ccc(C(F)(F)F)cc3)C(=O)c3ccccc32)c1 | < 1 ×10⁻⁶ cm/s |
| Cn1cnc(S(=O)(=O)Nc2cnccc2C(=O)Nc2nc(-c3ccccc3)cs2)c1 | 1.1 ×10⁻⁶ cm/s |
| Cc1ccccc1C(=O)N1CCc2cc(-c3ccnc(NC(=O)Cc4ccccc4)n3)ccc21 | > 1000 ×10⁻⁶ cm/s |
| CS(=O)(=O)c1ccccc1-c1csc(N2CCC(C(N)=O)CC2)n1 | 11.9 ×10⁻⁶ cm/s |

| Structure (SMILES) | Papp |
| --- | --- |
| COc1ccc(S(=O)(=O)N2CCN(C(=O)C3COc4ccccc4O3)CC2)cc1 (stereo not drawn) | > 1000 ×10⁻⁶ cm/s |
| O=C(CCc1ccccc1)NC(c1cccs1)c1cc(Cl)c2cccnc2c1O (stereo not drawn) | 20.9 ×10⁻⁶ cm/s |
| COc1cccc(CNc2ccc(S(=O)(=O)Nc3ccccn3)cc2)c1O | 586 ×10⁻⁶ cm/s |
| O=[S+]([O-])(Nc1ccc(N2CCNCC2)cc1)c1ccc(NCc2ccc(Cl)cc2O)cc1 | 6.78 ×10⁻⁶ cm/s |
| CC(=O)c1c(C)[nH]c(C(=O)Nc2ccc(C)c(S(=O)(=O)N3CCCCCC3)c2)c1C | 792 ×10⁻⁶ cm/s |
| COc1cc(Nc2nc(-c3ccncc3)nc3ccccc23)ccc1F | 445 ×10⁻⁶ cm/s |
| CCOc1ccc(CCNC(=O)c2cc3ncccc3n2Cc2cccc(C)c2)cc1OCC | > 1000 ×10⁻⁶ cm/s |
| CN(C)CCOC1=Cc2ccccc2Sc2ccc(Cl)cc21 | 996 ×10⁻⁶ cm/s |
| CC1=C(C(=O)NC2CCCC2)C(c2nn(C)cc2Cl)N=C(Nc2nc3ccccc3o2)N1 (stereo not drawn) | > 1000 ×10⁻⁶ cm/s |
| Nc1ncnc(N2CCc3ccccc32)c1[N+](=O)[O-] | 295 ×10⁻⁶ cm/s |
| O=S(=O)(Nc1nccs1)c1ccc(NCc2cccc3cc[nH]c23)cc1 | 2.4 ×10⁻⁶ cm/s |
| CCOc1ccc(NC(=O)CC2C(=O)N(c3ccc(F)cc3)C(=O)N2CCc2sccc2C)cc1 (stereo not drawn) | 927 ×10⁻⁶ cm/s |
| Cc1cc(NS(=O)(=O)c2ccc(N(C)C(=O)Cc3ccc(Cl)c(Cl)c3)cc2)no1 | 48.1 ×10⁻⁶ cm/s |
| CCC(CC)C(=O)NC[C@@H]1C=C(C)[C@H](Cc2nc3c(C)cccc3[nH]2)C[C@H]1C(C)C | > 1000 ×10⁻⁶ cm/s |
| Nc1nc2c(s1)C(c1ccc(F)c(F)c1)CC(=O)N2 (stereo not drawn) | 265 ×10⁻⁶ cm/s |
| C=C[C@@]1(C)C[C@H](OC(=O)CSC(C)(C)CNC(=O)[C@@H](N)C(C)C)[C@@]2(C)C(C)CC[C@@]3(CCC(=O)[C@@H]32)[C@H](C)[C@H]1O (stereo partly drawn) | > 1000 ×10⁻⁶ cm/s |
| CCOC(=O)CCNc1cc(N2CCc3ccccc3CC2)nc(-c2cccnc2)n1 | 951 ×10⁻⁶ cm/s |
| Cc1cccc(-n2cnc3cc(C(=O)N4CCCC(C(F)(F)F)C4)ccc32)c1 (stereo not drawn) | > 1000 ×10⁻⁶ cm/s |
| COc1ccc(Nc2cc3c(nc2OC)nc(CCc2ccccc2)n3C)cn1 | > 1000 ×10⁻⁶ cm/s |
| CNC(=O)Cn1cc(-c2ccc3c(c2)C(F)CC32NC(=O)N(CC(=O)N(Cc3ccc(F)cc3)[C@@H](C)C(F)(F)F)C2=O)cn1 (stereo partly drawn) | 115 ×10⁻⁶ cm/s |
| COc1ncc(-c2ccc3c(Nc4cc(Oc5cc(F)cc(F)c5)cc(C(=O)O)c4)c(S(=O)(=O)NC4CC4)cnc3c2)c(OC)n1 | < 1 ×10⁻⁶ cm/s |
| Cc1cnc(-c2ccccc2C2COC2)nc1NCc1ccc(-c2cccnc2)cc1 | 2.87 ×10⁻⁶ cm/s |
| O=C(Nc1nc(-c2ccccc2)cs1)c1ccncc1NS(=O)(=O)c1ccc(N2CCCC2=O)cc1 | 314 ×10⁻⁶ cm/s |
| Nc1c(C(=O)Nc2ccc(Cl)cc2)sc2nc3c(cc12)N1CCC3CC1 | 697 ×10⁻⁶ cm/s |
| Cc1cnc(-c2ccccc2C2COC2)nc1NCc1ccc(-n2ccnn2)cc1 | < 1 ×10⁻⁶ cm/s |
| CC(C)C(=O)Nc1cccc(NC(=O)c2cc3ccccc3o2)c1 | 874 ×10⁻⁶ cm/s |

| Structure (SMILES) | Papp |
| --- | --- |
| N[C@H]1CN(c2c(F)cc3c(=O)c(C(=O)O)cn(C4C[C@@H]4F)c3c2Cl)CC12CC2 (stereo partly drawn) | < 1 ×10⁻⁶ cm/s |
| Cc1noc(C)c1C(=O)N1CCC2(CCCN(Cc3ccccc3)C2)CC1 | 449 ×10⁻⁶ cm/s |
| Cc1ccccc1C(=O)N1CCc2cc(-c3nc(NC(=O)c4ccc5c(c4)OCO5)sc3C)ccc21 | 569 ×10⁻⁶ cm/s |
| COc1ccc(C)cc1Nc1c2c(nc3ccccc13)CCC2 | > 1000 ×10⁻⁶ cm/s |
| Cc1ccc(S(=O)(=O)Nc2cnccc2C(=O)Nc2ccc(C#N)cc2)cc1 | 69.6 ×10⁻⁶ cm/s |
| CC(C)c1ccccc1-c1ncc(F)c(NCc2ccc(-c3ccn[nH]3)cc2)n1 | > 1000 ×10⁻⁶ cm/s |
| Fc1ccc(-c2ccc(Nc3nc(-c4ccncc4)nc4ccccc34)cc2F)c(Cl)c1 | 20.9 ×10⁻⁶ cm/s |
| CC(=O)Nc1ccc(C(=O)Nc2ccccc2N)cc1 | < 1 ×10⁻⁶ cm/s |
| NC(=O)C1CCN(c2nc(-c3cccc(F)c3)cs2)CC1 | 685 ×10⁻⁶ cm/s |
| CN1CCN(C(=O)Cc2c[nH]c3ncc(-c4ccccc4Oc4ccccc4)cc23)CC1 | > 1000 ×10⁻⁶ cm/s |
| CNc1oc(-c2cccc3ccccc23)nc1C(=O)OC | > 1000 ×10⁻⁶ cm/s |
| CCCc1c(CC)c(=N)c2ccccc2n1C | 6.67 ×10⁻⁶ cm/s |
| Cc1cc(-c2nnc3n2CCCCC3)c(C)n1-c1ccc(C#N)cc1 | 215 ×10⁻⁶ cm/s |
| Oc1cccc(-c2nc(N3CCOCC3)c3oc4ncccc4c3n2)c1 | 537 ×10⁻⁶ cm/s |
| Cc1cc(C)nc(NC(=S)N2CCN(c3cccc(C(F)(F)F)n3)CC2)c1 | 589 ×10⁻⁶ cm/s |
| Oc1ccc(CNc2ccc(C(F)(F)F)cc2F)c2cccnc12 | 150 ×10⁻⁶ cm/s |
| CCOc1ccccc1N1CC(c2nc3ccccc3n2CCOc2ccc(C(C)(C)C)cc2)CC1=O (stereo not drawn) | 793 ×10⁻⁶ cm/s |
| CC1CCN(S(=O)(=O)c2ccc3c(ccc(=O)n3CC(=O)NCc3ccc(Cl)cc3)c2)CC1 | 799 ×10⁻⁶ cm/s |
| Cc1ccc(/C=C/c2nc3ccccc3n2S(=O)(=O)c2cccc(Cl)c2)cc1 | 11.5 ×10⁻⁶ cm/s |
| Cc1noc(C)c1-c1ccc2ncnc(NCc3cccc(Cl)c3)c2c1 | 970 ×10⁻⁶ cm/s |
| CCOC(=O)C1CCN(C(=O)C2(NC(=O)Nc3ccccc3Cl)CCC2)CC1 | 266 ×10⁻⁶ cm/s |
| Cc1nnc2n1-c1ccc(Cl)cc1C(c1ccccc1)=NC2 | 125 ×10⁻⁶ cm/s |
| COc1cccc(CNc2ccc(S(=O)(=O)Nc3ccccc3)cc2)c1O | > 1000 ×10⁻⁶ cm/s |
| CCCCN(CC)CCCNC(=O)c1ccc2c(c1)N(Cc1ccc(C)cc1)C(=O)c1ccccc1S2 | 827 ×10⁻⁶ cm/s |
| CC[C@H](Nc1ncnc2nc[nH]c12)c1nc2cccc(F)c2c(=O)n1-c1ccccc1 | 169 ×10⁻⁶ cm/s |
| Cc1cc(SCc2sc(-c3ccc(C(F)(F)F)cc3)nc2C)ccc1OCC(=O)O | 520 ×10⁻⁶ cm/s |

| Structure (SMILES) | Papp |
| --- | --- |
| OCC(O)CCO/N=C1/C(c2c(O)[nH]c3ccccc23)=Nc2ccccc21 (stereo not drawn) | 961 ×10⁻⁶ cm/s |
| CN1CCc2cc3c(cc2C1)OCO3 | 316 ×10⁻⁶ cm/s |
| Fc1ccc(Nc2nc(C3=CCNCC3)nc3ccccc23)cc1F | > 1000 ×10⁻⁶ cm/s |
| CSc1ccc(/C=C/c2nc3ccccc3n2S(=O)(=O)c2ccc(Br)cc2)cc1 | > 1000 ×10⁻⁶ cm/s |
| CCCCOc1ccc(CNC(=O)c2cc3n(n2)CCCN(Cc2ccc(C)cc2)C3=O)cc1 | < 1 ×10⁻⁶ cm/s |
| O=C(Nc1ncc(Cc2ccc(C(F)(F)F)cc2)s1)c1ccc(-c2cccnc2)o1 | 984 ×10⁻⁶ cm/s |
| COc1cc2ncnc(Oc3cccc(NC(=O)Nc4cc(C(C)(C)C(F)(F)F)on4)c3)c2cc1OC | 36.1 ×10⁻⁶ cm/s |
| Cc1nn2c(c1-c1ccccc1-c1ccccc1)N(Cc1ccc(C(=O)O)s1)CCC2 | 109 ×10⁻⁶ cm/s |
| CC[C@H]1CN(C)[C@H]2Cc3c([nH]c4ccccc34)C(=O)C[C@H]1[C@H]2C(=O)OC | 490 ×10⁻⁶ cm/s |
| COC1C(OC(=O)c2ccc(C)[nH]2)C(O)C(Oc2ccc3c(O)c(NC(=O)c4ccc(O)c(CC=C(C)C)c4)c(=O)oc3c2Cl)OC1(C)C (stereo not drawn) | 7.04 ×10⁻⁶ cm/s |
| Fc1cc(Nc2nc(-c3ccncc3)nc3ccccc23)ccc1N1CCCCC1 | > 1000 ×10⁻⁶ cm/s |
| COc1ccc(-n2c(C)c(C(C)=O)c3ccccc32)cc1 | > 1000 ×10⁻⁶ cm/s |
| COc1cccc(C(=O)Nc2ccc3c(N4CCOCC4)ncnc3c2)c1 | 39 ×10⁻⁶ cm/s |
| COc1cccc(NS(=O)(=O)c2ccc(NCc3cccc(OC)c3O)cc2)c1 | 603 ×10⁻⁶ cm/s |
| Cc1ccc(S(=O)(=O)Nc2cnccc2C(=O)Nc2nc3ccccc3s2)cc1 | 475 ×10⁻⁶ cm/s |
| COC(=N)c1nc2ccc3ncnc(Nc4ccc(F)cc4Br)c3c2s1 | 28 ×10⁻⁶ cm/s |
| Cc1ccccc1NC(=O)Nc1cccs1 | 106 ×10⁻⁶ cm/s |
| Cc1ccc(-c2ccc(CNc3nc(-c4ccccc4C(C)C)ncc3C)cc2)cn1 | 824 ×10⁻⁶ cm/s |
| NC(=O)C1CCN(c2ncnc(-c3ccc4c(c3)OCCCO4)n2)CC1 | 254 ×10⁻⁶ cm/s |
| COc1cccc(CNc2ccc(S(=O)(=O)Nc3ccc(C4CCNCC4)cc3)cc2)c1O | 1.79 ×10⁻⁶ cm/s |
| COc1ccc(S(=O)(=O)N(C(=O)C(C)C)c2ccc3oc(=O)sc3c2)cc1 | 658 ×10⁻⁶ cm/s |
| CC(=O)c1c(C)[nH]c(C(=O)Nc2cccc(S(=O)(=O)Nc3ccc(Br)cc3)c2)c1C | 288 ×10⁻⁶ cm/s |
| CC#CC(=O)N1CCC[C@H]1c1nc(-c2ccc(C(=O)Nc3ccccn3)cc2)c2c(N)nccn12 | 39.9 ×10⁻⁶ cm/s |
| CN1C(=O)C(=O)N2C(=C[C@]3(c4c[nH]c5ccccc45)c4ccccc4N[C@H]23)C1=O | 209 ×10⁻⁶ cm/s |
| Cc1nc([N+](=O)[O-])cn1-c1ccc([N+](=O)[O-])cc1 | 27.9 ×10⁻⁶ cm/s |

Source: PubChem BioAssay AID1508612
